Reference: ChEMBL document CHEMBL3392976, “The discovery of novel 3-(pyrazin-2-yl)-1H-indazoles as potent pan-Pim kinase inhibitors” (Bioorg Med Chem Lett, 2015)

Columns and labels:
in vivo [1] = settings: Sprague-Dawley, rat, iv, 2 mg/kg
in vivo [2] = settings: Sprague-Dawley, rat, iv, 2 mg/kg; remark: listed apart in the source
in vivo [3] = settings: Sprague-Dawley, rat, iv, 2 mg/kg; remark: listed apart in the source
in vivo [4] = settings: Sprague-Dawley, rat, plasma, po, 5 mg/kg
in vivo [5] = settings: Sprague-Dawley, rat, po, 5 mg/kg

Fc1cccc(F)c1-c1ccc2[nH]nc(-c3cncc(O[C@H]4CNCCC45CC5)n3)c2c1
clearance (in vivo [1]): 16.7 mL/min/kg | Vd (in vivo [2]): 3.7 L/kg | half-life (in vivo [3]): 2.7 h | AUC (in vivo [4]): 12.2 µM·h | bioavailability (in vivo [5]): 89%
